Measured values: PubChem BioAssay AID328 (DTP/NCI, 2004)
“And” between values parts separate entries of the source, which are not always exact repeats. Identical values can stand only once. Toxic doses and inconclusive results are not listed.

Tested on: BDF1 mice, P388 leukemia ip, median survival T/C
Assay: NCI In Vivo Anticancer Drug Screen. Data for tumor model P388 Leukemia (intraperitoneal) in B6D2F1 (BDF1) mice
Conditions: endpoint: median survival time, higher = longer survival
Summary of the method: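 Transplantable tumour in mice; compound vs vehicle dosing; survival scored; ratio of treated to control reported.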

[1] = dose: 100.0 mg/kg/injection, schedule: Q01DX001 (ip), vehicle: Klucel (hydroxypropylcellulose) (HPC)
[2] = dose: 100.0 mg/kg/injection, schedule: Q04DX003 (ip), vehicle: Klucel (hydroxypropylcellulose) (HPC)
[3] = dose: 200.0 mg/kg/injection, schedule: Q01DX001 (ip), vehicle: Klucel (hydroxypropylcellulose) (HPC)
[4] = dose: 200.0 mg/kg/injection, schedule: Q04DX003 (ip), vehicle: Klucel (hydroxypropylcellulose) (HPC)
[5] = dose: 400.0 mg/kg/injection, schedule: Q01DX001 (ip), vehicle: Klucel (hydroxypropylcellulose) (HPC)
[6] = dose: 400.0 mg/kg/injection, schedule: Q04DX003 (ip), vehicle: Klucel (hydroxypropylcellulose) (HPC)
[7] = dose: 25.0 mg/kg/injection, schedule: Q01DX009 (ip), vehicle: saline
[8] = dose: 100.0 mg/kg/injection, schedule: Q01DX009 (ip), vehicle: saline
[9] = dose: 50.0 mg/kg/injection, schedule: Q04DX003 (ip), vehicle: saline with Tween-80
[10] = dose: 100.0 mg/kg/injection, schedule: Q04DX003 (ip), vehicle: saline with Tween-80
[11] = dose: 100.0 mg/kg/injection, schedule: Q04DX003 (ip), vehicle: saline

For O=C1OC(c2ccc(Cl)cc2)=N/C1=C\c1ccccc1, the T/C [1] was 95 % of control, the T/C [2] was 86 % of control and the T/C [3] was 95 % of control. The T/C [4] was 90 % of control, the T/C [5] was 100 % of control and the T/C [6] was 95 % of control.
For CCOc1nsc(OCC)n1, the T/C [1] was 86 % of control and the T/C [3] was 104 % of control.
C[N+](C)(C)Cc1ccccc1C[N+](C)(C)C was tested, and the T/C [7] was 116 % of control, the T/C (dose: 50.0 mg/kg/injection, schedule: Q01DX009 (ip), vehicle: saline) was 112 % of control and the T/C [8] was 112 % of control.
In the case of N#CCC(C#N)N1CCOCC1 (stereo not drawn), the T/C (dose: 6.25 mg/kg/injection, schedule: Q01DX009 (ip), vehicle: saline with Tween-80) is reported as 111 % of control, the T/C (dose: 12.5 mg/kg/injection, schedule: Q01DX009 (ip), vehicle: saline with Tween-80) is reported as 96 % of control and the T/C (dose: 25.0 mg/kg/injection, schedule: Q01DX009 (ip), vehicle: saline with Tween-80) is reported as 88 % of control. The T/C [9] was 104 % of control and the T/C [10] was 108 % of control.
O=C1CC2(C(=O)N1CN1CCN(c3ccc(F)cc3)CC1)c1ccccc1-c1ccccc12 (tested in a mixture with another compound) was tested, and the T/C (dose: 25.0 mg/kg/injection, schedule: Q04DX003 (ip), vehicle: saline with Tween-80) was 101 % of control and 107 % of control and 121 % of control, the T/C [9] was 91 % of control and 101 % of control and the T/C [10] was 97 % of control and 105 % of control.
In the case of COc1cc2c(cc1OC)C(=O)Cc1ccc3c(c1CN(C)CC2)OCO3, the T/C (dose: 1.5 mg/kg/injection, schedule: Q01DX009 (ip), vehicle: saline sonified) is reported as 95 % of control, the T/C (dose: 3.0 mg/kg/injection, schedule: Q01DX009 (ip), vehicle: saline sonified) is reported as 100 % of control and the T/C (dose: 6.0 mg/kg/injection, schedule: Q01DX009 (ip), vehicle: saline sonified) is reported as 112 % of control.
With CC(C)(C)OC(=O)NO the T/C [8] was 105 % of control, the T/C [11] was 91 % of control and the T/C (dose: 200.0 mg/kg/injection, schedule: Q01DX009 (ip), vehicle: saline) was 95 % of control. For the same compound, the T/C (dose: 200.0 mg/kg/injection, schedule: Q04DX003 (ip), vehicle: saline) was 95 % of control, the T/C (dose: 400.0 mg/kg/injection, schedule: Q01DX009 (ip), vehicle: saline) was 90 % of control and the T/C (dose: 400.0 mg/kg/injection, schedule: Q04DX003 (ip), vehicle: saline) was 95 % of control.
For COC(=O)c1ccc([N+](=O)[O-])c(OC)c1, the T/C (dose: 75.0 mg/kg/injection, schedule: Q04DX003 (ip), vehicle: saline) was 100 % of control, the T/C (dose: 150.0 mg/kg/injection, schedule: Q04DX003 (ip), vehicle: saline) was 100 % of control and the T/C (dose: 300.0 mg/kg/injection, schedule: Q04DX003 (ip), vehicle: saline) was 104 % of control.
For Cc1cccc(Br)[n+]1[O-], the T/C [7] was 90 % of control, the T/C (dose: 25.0 mg/kg/injection, schedule: Q04DX003 (ip), vehicle: saline) was 95 % of control and the T/C (dose: 50.0 mg/kg/injection, schedule: Q01DX001 (ip), vehicle: saline) was 100 % of control. For the same compound, the T/C [8] was 95 % of control, the T/C [11] was 95 % of control and the T/C (dose: 200.0 mg/kg/injection, schedule: Q01DX001 (ip), vehicle: saline) was 100 % of control.
Cc1cc(C)c(OC(=O)CNC(=O)C(C)NC(=O)OC(C)(C)C)c(C)c1 (stereo not drawn) was tested, and the T/C (dose: 50.0 mg/kg/injection, schedule: Q01DX005 (ip), vehicle: Klucel (hydroxypropylcellulose) (HPC)) was 91 % of control, the T/C (dose: 100.0 mg/kg/injection, schedule: Q01DX005 (ip), vehicle: Klucel (hydroxypropylcellulose) (HPC)) was 97 % of control and the T/C (dose: 200.0 mg/kg/injection, schedule: Q01DX005 (ip), vehicle: Klucel (hydroxypropylcellulose) (HPC)) was 91 % of control.
In the case of CSc1ncc2cnccn12, the T/C (dose: 12.5 mg/kg/injection, schedule: Q01DX009 (ip), vehicle: water) is reported as 105 % of control, the T/C (dose: 25.0 mg/kg/injection, schedule: Q01DX009 (ip), vehicle: water) is reported as 96 % of control and the T/C (dose: 25.0 mg/kg/injection, schedule: Q04DX003 (ip), vehicle: water) is reported as 100 % of control. The T/C (dose: 50.0 mg/kg/injection, schedule: Q01DX009 (ip), vehicle: water) was 100 % of control, the T/C (dose: 50.0 mg/kg/injection, schedule: Q04DX003 (ip), vehicle: water) was 104 % of control and the T/C (dose: 100.0 mg/kg/injection, schedule: Q04DX003 (ip), vehicle: water) was 95 % of control.
For CC(C)OC(=S)SSC(=S)OC(C)C, the T/C [1] was 118 % of control, the T/C (dose: 100.0 mg/kg/injection, schedule: Q01DX009 (ip), vehicle: Klucel (hydroxypropylcellulose) (HPC)) was 104 % of control and the T/C [2] was 104 % of control. The T/C [3] was 109 % of control, the T/C (dose: 200.0 mg/kg/injection, schedule: Q01DX009 (ip), vehicle: Klucel (hydroxypropylcellulose) (HPC)) was 109 % of control and the T/C [4] was 118 % of control. For the same compound, the T/C [5] was 104 % of control and the T/C [6] was 118 % of control.
Cc1ccc(CC2c3ccccc3Nc3ccccc32)cc1 was tested, and the T/C (dose: 100.0 mg/kg/injection, schedule: Q01DX001 (ip), vehicle: saline with Tween-80) was 86 % of control, the T/C (dose: 200.0 mg/kg/injection, schedule: Q01DX001 (ip), vehicle: saline with Tween-80) was 86 % of control and the T/C (dose: 400.0 mg/kg/injection, schedule: Q01DX001 (ip), vehicle: saline with Tween-80) was 88 % of control.
For C=C1C(=O)OC2CC(C)C3C4OC4C(O)C3(C)C(O)C12 (stereo not drawn), the T/C (dose: 6.25 mg/kg/injection, schedule: Q01DX009 (ip), vehicle: saline) was 100 % of control, the T/C (dose: 9.38 mg/kg/injection, schedule: Q01DX009 (ip), vehicle: saline) was 111 % of control and the T/C (dose: 12.5 mg/kg/injection, schedule: Q01DX009 (ip), vehicle: saline) was 100 % of control. For the same compound, the T/C (dose: 16.5 mg/kg/injection, schedule: Q01DX009 (ip), vehicle: saline) was 101 % of control, the T/C (dose: 18.75 mg/kg/injection, schedule: Q01DX009 (ip), vehicle: saline) was 120 % of control and the T/C [7] was 104 % of control and 108 % of control. For the same compound, the T/C (dose: 37.5 mg/kg/injection, schedule: Q01DX009 (ip), vehicle: saline) was 112 % of control and the T/C (dose: 56.25 mg/kg/injection, schedule: Q01DX009 (ip), vehicle: saline) was 110 % of control.
O=C1c2ccccc2C(=O)c2c(O)c(NCCCN3CCOCC3)cc(O)c21 was tested, and the T/C (dose: 50.0 mg/kg/injection, schedule: Q01DX005 (ip), vehicle: saline with Tween-80) was 99 % of control, the T/C (dose: 100.0 mg/kg/injection, schedule: Q01DX005 (ip), vehicle: saline with Tween-80) was 94 % of control and the T/C (dose: 200.0 mg/kg/injection, schedule: Q01DX005 (ip), vehicle: saline with Tween-80) was 94 % of control.
In the case of C=C1C(=O)OC2/C=C(\C)C3(O)C=CC(C)(CC(OC(=O)C(C)C)C12)O3 (stereo not drawn), the T/C (dose: 10.0 mg/kg/injection, schedule: Q01DX009 (ip), vehicle: saline) is reported as 103 % of control, the T/C (dose: 12.5 mg/kg/injection, schedule: Q01DX009 (ip), vehicle: other) is reported as 161 % of control and the T/C (dose: 25.0 mg/kg/injection, schedule: Q01DX009 (ip), vehicle: other) is reported as 155 % of control. The T/C (dose: 40.0 mg/kg/injection, schedule: Q01DX009 (ip), vehicle: saline) was 100 % of control and the T/C (dose: 50.0 mg/kg/injection, schedule: Q01DX009 (ip), vehicle: other) was 161 % of control.
With Cc1cc(O)c2cc3c(O)c(O)ccc3cc2c1 the T/C (dose: 0.5 mg/kg/injection, schedule: Q01DX010 (ip), vehicle: saline) was 100 % of control, the T/C (dose: 1.0 mg/kg/injection, schedule: Q01DX010 (ip), vehicle: saline) was 109 % of control and the T/C (dose: 2.0 mg/kg/injection, schedule: Q01DX010 (ip), vehicle: saline) was 118 % of control and 122 % of control. The T/C (dose: 4.0 mg/kg/injection, schedule: Q01DX010 (ip), vehicle: saline) was 122 % of control, the T/C (dose: 31.3 micrograms/kg/injection, schedule: Q01DX010 (ip), vehicle: saline) was 109 % of control and the T/C (dose: 125.0 micrograms/kg/injection, schedule: Q01DX010 (ip), vehicle: saline) was 90 % of control. The T/C (dose: 250.0 micrograms/kg/injection, schedule: Q01DX010 (ip), vehicle: saline) was 90 % of control.
In the case of Cc1ccc(S(=O)(=O)OCC2C3CCCC2C3)cc1 (stereo not drawn), the T/C (dose: 50.0 mg/kg/injection, schedule: Q01DX009 (ip), vehicle: saline with Tween-80) is reported as 101 % of control, the T/C (dose: 100.0 mg/kg/injection, schedule: Q01DX009 (ip), vehicle: saline with Tween-80) is reported as 100 % of control and the T/C (dose: 200.0 mg/kg/injection, schedule: Q01DX009 (ip), vehicle: saline with Tween-80) is reported as 96 % of control.
